PubChem BioAssay AID314 (DTP/NCI, 2004)
“And” between values parts separate entries of the source, which are not always exact repeats. Equal entries are not always repeated. Inconclusive results and toxic doses are left out. Rule for the calls: active = survival T/C of 150% or more; inactive = T/C below 125% in these data. Starred links: 1 amine or outer side, 2 acyl side, 3 side chain; linkers in the order of their positions; H or OH if unused. Positions of bridges follow the written chain, without caps; N, C: chain ends. Non-standard residues stand in square brackets, D forms with d. Residues, ends and D or L forms follow the SMILES beside them. Chains are numbered I, II in the order given. Actinocin(9to1) = Cc1c2oc3c(C)ccc(C(=O)[*:1])c3nc-2c(C(=O)[*:2])c(N)c1=O; aThr = C[C@H](O)[C@H](N)C(=O)O; NMeV = CN[C@H](C(=O)O)C(C)C; Sar = CNCC(=O)O

Tested on: DBA/2 mice, P1534 leukemia ip, survival T/C
Experiment: NCI In Vivo Anticancer Drug Screen. Data for tumor model P1534 Leukemia (intraperitoneal) in DBA/2 mice
Conditions: endpoint: mean survival time, higher = longer survival
Experimental: The antitumor activity of compounds was measured in mice bearing transplantable tumors. Survival or tumor size were measured and the results are expressed as the measurement made in the treated group (T) divided by the measurement made in the vehicle treated control group (C). The tumor model used in this assay is P1534 Leukemia (intraperitoneal) in DBA/2 mice

[1] = dose: 5.0 mg/kg/injection, schedule: Q01DX010 (ip), vehicle: saline
[2] = dose: 10.0 mg/kg/injection, schedule: Q01DX010 (ip), vehicle: saline
[3] = dose: 20.0 mg/kg/injection, schedule: Q01DX010 (ip), vehicle: saline
[4] = dose: 40.0 mg/kg/injection, schedule: Q01DX010 (ip), vehicle: saline
[5] = dose: 1.25 mg/kg/injection, schedule: Q01DX010 (ip), vehicle: saline
[6] = dose: 2.5 mg/kg/injection, schedule: Q01DX010 (ip), vehicle: saline
[7] = dose: 0.5 mg/kg/injection, schedule: Q01DX010 (ip), vehicle: saline
[8] = dose: 1.0 mg/kg/injection, schedule: Q01DX010 (ip), vehicle: saline
[9] = dose: 2.0 mg/kg/injection, schedule: Q01DX010 (ip), vehicle: saline
[10] = dose: 4.0 mg/kg/injection, schedule: Q01DX010 (ip), vehicle: saline
[11] = dose: 8.0 mg/kg/injection, schedule: Q01DX010 (ip), vehicle: saline
[12] = dose: 16.0 mg/kg/injection, schedule: Q01DX010 (ip), vehicle: saline
[13] = dose: 32.0 mg/kg/injection, schedule: Q01DX010 (ip), vehicle: saline
[14] = dose: 3.13 mg/kg/injection, schedule: Q01DX010 (ip), vehicle: saline
[15] = dose: 6.25 mg/kg/injection, schedule: Q01DX010 (ip), vehicle: saline
[16] = dose: 12.5 mg/kg/injection, schedule: Q01DX010 (ip), vehicle: saline
[17] = dose: 25.0 mg/kg/injection, schedule: Q01DX010 (ip), vehicle: saline
[18] = dose: 31.3 mg/kg/injection, schedule: Q01DX010 (ip), vehicle: saline
[19] = dose: 62.5 mg/kg/injection, schedule: Q01DX010 (ip), vehicle: saline
[20] = dose: 125.0 mg/kg/injection, schedule: Q01DX010 (ip), vehicle: saline
[21] = dose: 250.0 mg/kg/injection, schedule: Q01DX010 (ip), vehicle: saline
[22] = dose: 500.0 mg/kg/injection, schedule: Q01DX010 (ip), vehicle: saline
[23] = dose: 0.25 mg/kg/injection, schedule: Q01DX010 (ip), vehicle: saline
[24] = dose: 50.0 mg/kg/injection, schedule: Q01DX010 (ip), vehicle: saline
[25] = dose: 100.0 mg/kg/injection, schedule: Q01DX010 (ip), vehicle: saline
[26] = dose: 200.0 mg/kg/injection, schedule: Q01DX010 (ip), vehicle: saline

Measured: T/C

Cn1c(N)nc2nc[nH]c2c1=S
inactive: [1] 100 % of control | [2] 100 % of control | [3] 100 % of control | [4] 100 % of control

COC(=O)C1C(O)CCC2CN3CCc4c([nH]c5ccccc45)C3CC21 (stereo not drawn)
inactive: dose: 0.31 mg/kg/injection, schedule: Q01DX010 (ip), vehicle: saline 103 % of control | dose: 0.63 mg/kg/injection, schedule: Q01DX010 (ip), vehicle: saline 103 % of control | [5] 106 % of control | [6] 103 % of control

N=C(N)SCc1c2ccccc2c(CSC(=N)N)c2ccccc12
inactive: [1] 100 % of control | [2] 96 % of control

N=[N+]=CC(=O)OCC(N)C(=O)O (stereo not drawn)
inactive: [7] 94 % of control | [8] 103 % of control and 120 % of control | [9] 120 % of control and 123 % of control | [10] 117 % of control

COc1cc([C@@H]2c3cc4c(c(O)c3C[C@H]3COC(=O)[C@@H]32)OCO4)cc(OC)c1OC
inactive: dose: 39.0 micrograms/kg/injection, schedule: Q01DX010 (ip), vehicle: saline 100 % of control | dose: 78.0 micrograms/kg/injection, schedule: Q01DX010 (ip), vehicle: saline 103 % of control | dose: 156.0 micrograms/kg/injection, schedule: Q01DX010 (ip), vehicle: saline 90 % of control

CCNNC(=O)[C@@H]1[C@H](c2cc(OC)c(OC)c(OC)c2)c2cc3c(cc2[C@H](O)[C@H]1CO)OCO3
inactive: [9] 100 % of control | [10] 100 % of control | [11] 96 % of control and 100 % of control and 111 % of control | [12] 100 % of control (2×) and 103 % of control | [13] 103 % of control

CS(=O)(=O)OCCC(=O)N1CCN(C(=O)CCOS(C)(=O)=O)CC1
inactive: [14] 107 % of control | [15] 103 % of control | [16] 119 % of control | [17] 120 % of control

NC(Cc1ccc(N(CCCl)CCCl)cc1)C(=O)O (stereo not drawn)
inactive: dose: 0.5 mg/kg/injection, schedule: Q01DX010 (ip), vehicle: alkali diluted with saline 102 % of control and 111 % of control | dose: 1.0 mg/kg/injection, schedule: Q01DX010 (ip), vehicle: alkali diluted with saline 104 % of control | [5] 100 % of control and 119 % of control | dose: 2.0 mg/kg/injection, schedule: Q01DX010 (ip), vehicle: alkali diluted with saline 99 % of control | [6] 100 % of control | dose: 4.0 mg/kg/injection, schedule: Q01DX010 (ip), vehicle: alkali diluted with saline 101 % of control | [1] 100 % of control

COC12C(COC(N)=O)C3=C(C(=O)C(C)=C(N)C3=O)N1CC1C2N1C (stereo not drawn)
inactive: dose: 2.5 mg/kg/injection, schedule: Q01DX010 (sc), vehicle: saline 108 % of control | dose: 5.0 mg/kg/injection, schedule: Q01DX010 (sc), vehicle: saline 108 % of control | dose: 10.0 mg/kg/injection, schedule: Q01DX010 (sc), vehicle: saline 100 % of control

Cn1c(O)c(N=NC(N)=S)c2ccccc21
inactive: [18] 100 % of control | [19] 100 % of control | [20] 103 % of control

CC(C)(C)CC(C)(C)c1ccc(O)cc1
inactive: [19] 100 % of control | [20] 100 % of control | [21] 107 % of control | [22] 111 % of control

Cc1c2oc3c(C)ccc(C(=O)N[C@@H]4C(=O)N[C@H](C(C)C)C(=O)N5CCC[C@H]5C(=O)N(C)CC(=O)N(C)[C@@H](C(C)C)C(=O)O[C@H]4C)c3nc-2c(C(=O)N[C@@H]2C(=O)N[C@H](C(C)C)C(=O)N3CCC[C@H]3C(=O)N(C)CC(=O)N(C)[C@@H](C(C)C)C(=O)O[C@H]2C)c(N)c1=O (I: [aThr][dV]P[Sar][NMeV] / II: [aThr][dV]P[Sar][NMeV]; ester I:1-I:C, II:1-II:C; linker I:N-II:N via Actinocin(9to1))
inactive: dose: 0.02 mg/kg/injection, schedule: Q01DX010 (ip), vehicle: other 93 % of control | dose: 0.03 mg/kg/injection, schedule: Q01DX010 (ip), vehicle: other 104 % of control | dose: 0.03 mg/kg/injection, schedule: Q01DX010 (ip), vehicle: saline 97 % of control | dose: 0.06 mg/kg/injection, schedule: Q01DX010 (ip), vehicle: other 103 % of control | dose: 0.06 mg/kg/injection, schedule: Q01DX010 (ip), vehicle: saline 100 % of control

Nc1nc(SCc2ccccc2)c2[nH]cnc2n1
inactive: [11] 92 % of control and 100 % of control | [12] 100 % of control | [18] 88 % of control | [13] 100 % of control and 103 % of control

CO[C@@]12[C@H](COC(N)=O)C3=C(C(=O)C(C)=C(N)C3=O)N1C[C@@H]1N[C@@H]12
inactive: [23] 92 % of control | [7] 111 % of control | [8] 103 % of control | [9] 92 % of control

Oc1cc(CN(CCCl)CCCl)c(O)cc1CN(CCCl)CCCl
inactive: [6] 117 % of control

CC(=O)c1cccc(NC2C(N)C(NC(=O)N(C)C)(C(C)O)C(C)(O)C2(O)COC(=O)c2c(C)cccc2O)c1 (stereo not drawn)
inactive: [23] 90 % of control

CN(C)c1ccc(/C=C/c2ccnc3ccccc23)cc1
inactive: [1] 100 % of control and 108 % of control | [2] 100 % of control | [3] 100 % of control and 108 % of control | [4] 100 % of control

O=c1[nH]c(=O)n(C2CC(O)C(CO)O2)cc1I (stereo not drawn)
inactive: [20] 103 % of control and 107 % of control | [21] 103 % of control and 110 % of control | [22] 107 % of control and 114 % of control and 121 % of control | dose: 1000.0 mg/kg/injection, schedule: Q01DX010 (ip), vehicle: saline 110 % of control

[N-]=[N+]=CC(=O)NCC(=O)NN
inactive: [24] 108 % of control | [25] 100 % of control | [26] 95 % of control | dose: 400.0 mg/kg/injection, schedule: Q01DX010 (ip), vehicle: saline 91 % of control

C[C@H]1C(=O)O[C@@H]2CCN3CC=C(COC(=O)[C@](C)(O)[C@@]1(C)O)[C@H]23
inactive: [14] 100 % of control and 117 % of control | [15] 96 % of control and 107 % of control | [16] 96 % of control and 107 % of control | [17] 100 % of control

Cn1cnc([N+](=O)[O-])c1Sc1ncnc2nc[nH]c12
inactive: [16] 96 % of control

C[C@]12CC[C@H](OC3OC(CO)C(O)C(O)C3O)C[C@H]1CC[C@@H]1[C@@H]2CC[C@]2(C)[C@@H](C3=CCOC3=O)CC[C@]12O (stereo partly drawn)
inactive: [7] 100 % of control | [8] 91 % of control

COC1C(OC(N)=O)C(O)C(Oc2ccc3c(O)c(NC(=O)c4ccc(O)c(CC=C(C)C)c4)c(=O)oc3c2C)OC1(C)C (stereo not drawn)
inactive: [15] 100 % of control | [16] 104 % of control | [17] 100 % of control | [24] 103 % of control and 104 % of control | [25] 96 % of control | [26] 92 % of control

c1ccc(CCSc2ncnc3nc[nH]c23)cc1
inactive: [20] 100 % of control | [21] 100 % of control | [22] 104 % of control

Cc1cc(N(CCCl)CCCl)ccc1N=Nc1ccccc1C(=O)O
inactive: [1] 114 % of control and 123 % of control | [2] 118 % of control | [3] 107 % of control and 111 % of control

CCC(=O)NC1=C(N2CC2)C(=O)C(NC(=O)CC)=C(N2CC2)C1=O
inactive: dose: 0.13 mg/kg/injection, schedule: Q01DX010 (ip), vehicle: saline 108 % of control | [23] 108 % of control | [7] 100 % of control | [8] 112 % of control
